{"source": "PubChem BioAssay AID248", "about": "(DTP/NCI, 2004)", "tested_on": "L1210 leukemia ip in BDF1 mice, survival T/C", "test": "NCI In Vivo Anticancer Drug Screen. Data for tumor model L1210 Leukemia (intraperitoneal) in B6D2F1 (BDF1) mice", "settings": "endpoint: mean survival time, higher = longer survival", "procedure,_shortened": "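Tumor cells were implanted, animals were treated, and survival was followed. The result divides the treated measurement by the vehicle-control measurement.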", "key": {"[1]": {"settings": "dose: 100.0 mg/kg/injection, schedule: Q01DX001 (ip), vehicle: saline"}, "[2]": {"settings": "dose: 200.0 mg/kg/injection, schedule: Q01DX001 (ip), vehicle: saline"}, "[3]": {"settings": "dose: 400.0 mg/kg/injection, schedule: Q01DX001 (ip), vehicle: saline"}, "[4]": {"settings": "dose: 100.0 mg/kg/injection, schedule: Q01DX001 (ip), vehicle: carboxymethylcellulose (CMC)"}, "[5]": {"settings": "dose: 200.0 mg/kg/injection, schedule: Q01DX001 (ip), vehicle: carboxymethylcellulose (CMC)"}}, "note": "Several values for one entry are separate records, joined by “and”; a condition that tells them apart may be missing. Identical values can stand only once. Toxic doses and inconclusive results are not listed.", "data": [{"smiles": "CC(C)(O)CCNc1ncnc2c1ncn2C1OC(CO)C(O)C1O", "note": "(stereo not given)", "values": [{"measurement": "T/C", "setting": "dose: 25.0 mg/kg/injection, schedule: Q01DX005 (ip), vehicle: water", "result": "97 % of control and 104 % of control"}, {"measurement": "T/C", "setting": "dose: 50.0 mg/kg/injection, schedule: Q01DX005 (ip), vehicle: water", "result": "103 % of control and 110 % of control"}, {"measurement": "T/C", "setting": "dose: 100.0 mg/kg/injection, schedule: Q01DX005 (ip), vehicle: water", "result": "106 % of control and 109 % of control"}]}, {"smiles": "O=C(O)CNC(=O)c1ccccc1C(=O)NCC(=O)OCc1ccccc1", "values": [{"measurement": "T/C", "setting": "dose: 50.0 mg/kg/injection, schedule: Q01DX001 (ip), vehicle: saline", "result": "94 % of control"}, {"measurement": "T/C", "setting": "[1]", "result": "91 % of control"}, {"measurement": "T/C", "setting": "[2]", "result": "91 % of control"}, {"measurement": "T/C", "setting": "[3]", "result": "97 % of control"}]}, {"smiles": "Cc1c(CCl)c(C)c(CCl)c(C)c1CCl", "values": [{"measurement": "T/C", "setting": "dose: 12.0 mg/kg/injection, schedule: Q04DX003 (ip), vehicle: Klucel (hydroxypropylcellulose) (HPC)", "result": "105 % of control"}, {"measurement": "T/C", "setting": "dose: 25.0 mg/kg/injection, schedule: Q01DX009 (ip), vehicle: Klucel (hydroxypropylcellulose) (HPC)", "result": "88 % of control"}, {"measurement": "T/C", "setting": "dose: 25.0 mg/kg/injection, schedule: Q04DX003 (ip), vehicle: Klucel (hydroxypropylcellulose) (HPC)", "result": "100 % of control"}, {"measurement": "T/C", "setting": "dose: 50.0 mg/kg/injection, schedule: Q01DX009 (ip), vehicle: Klucel (hydroxypropylcellulose) (HPC)", "result": "100 % of control"}, {"measurement": "T/C", "setting": "dose: 50.0 mg/kg/injection, schedule: Q04DX003 (ip), vehicle: Klucel (hydroxypropylcellulose) (HPC)", "result": "100 % of control"}]}, {"smiles": "O=NN(CCCl)C(=O)Nc1ccc2c(c1)OCO2", "values": [{"measurement": "T/C", "setting": "dose: 4.0 mg/kg/injection, schedule: Q01DX009 (ip), vehicle: other", "result": "155 % of control"}, {"measurement": "T/C", "setting": "dose: 6.0 mg/kg/injection, schedule: Q01DX009 (ip), vehicle: other", "result": "163 % of control"}, {"measurement": "T/C", "setting": "dose: 9.0 mg/kg/injection, schedule: Q01DX009 (ip), vehicle: other", "result": "170 % of control"}, {"measurement": "T/C", "setting": "dose: 13.0 mg/kg/injection, schedule: Q01DX009 (ip), vehicle: other", "result": "173 % of control"}, {"measurement": "T/C", "setting": "dose: 20.0 mg/kg/injection, schedule: Q01DX001 (ip), vehicle: other", "result": "180 % of control"}, {"measurement": "T/C", "setting": "dose: 20.0 mg/kg/injection, schedule: Q01DX009 (ip), vehicle: other", "result": "164 % of control"}, {"measurement": "T/C", "setting": "dose: 22.0 mg/kg/injection, schedule: Q01DX009 (ip), vehicle: carboxymethylcellulose (CMC)", "result": "157 % of control"}, {"measurement": "T/C", "setting": "dose: 30.0 mg/kg/injection, schedule: Q01DX001 (ip), vehicle: other", "result": "170 % of control"}, {"measurement": "T/C", "setting": "dose: 30.0 mg/kg/injection, schedule: Q01DX009 (ip), vehicle: other", "result": "166 % of control and 185 % of control"}, {"measurement": "T/C", "setting": "dose: 44.0 mg/kg/injection, schedule: Q01DX009 (ip), vehicle: other", "result": "104 % of control"}, {"measurement": "T/C", "setting": "dose: 66.0 mg/kg/injection, schedule: Q01DX001 (ip), vehicle: other", "result": "226 % of control"}, {"measurement": "T/C", "setting": "dose: 88.0 mg/kg/injection, schedule: Q01DX001 (ip), vehicle: saline", "result": "151 % of control"}, {"measurement": "T/C", "setting": "[4]", "result": "151 % of control"}, {"measurement": "T/C", "setting": "[5]", "result": "160 % of control"}]}, {"smiles": "O=c1[nH]c2c(c(=O)[nH]1)OCN(Cc1ccccc1)C2", "values": [{"measurement": "T/C", "setting": "dose: 50.0 mg/kg/injection, schedule: Q01DX001 (ip), vehicle: carboxymethylcellulose (CMC)", "result": "98 % of control"}, {"measurement": "T/C", "setting": "[4]", "result": "105 % of control"}, {"measurement": "T/C", "setting": "[5]", "result": "100 % of control"}, {"measurement": "T/C", "setting": "dose: 400.0 mg/kg/injection, schedule: Q01DX001 (ip), vehicle: carboxymethylcellulose (CMC)", "result": "100 % of control"}]}, {"smiles": "NC1CCCCCCCC1", "values": [{"measurement": "T/C", "setting": "dose: 75.0 mg/kg/injection, schedule: Q01DX001 (ip), vehicle: acetone", "result": "95 % of control"}, {"measurement": "T/C", "setting": "dose: 150.0 mg/kg/injection, schedule: Q01DX001 (ip), vehicle: acetone", "result": "98 % of control"}]}, {"smiles": "C[n+]1c(O)c(C(=O)CCl)n2ccccc21", "values": [{"measurement": "T/C", "setting": "dose: 100.0 mg/kg/injection, schedule: Q01DX009 (ip), vehicle: saline", "result": "94 % of control"}, {"measurement": "T/C", "setting": "dose: 200.0 mg/kg/injection, schedule: Q01DX009 (ip), vehicle: saline", "result": "91 % of control"}, {"measurement": "T/C", "setting": "dose: 400.0 mg/kg/injection, schedule: Q01DX009 (ip), vehicle: saline", "result": "92 % of control"}]}, {"smiles": "CCC(c1ccc2cc(OC)ccc2c1)C(C)(C)C(=O)F", "note": "(stereo not given)", "values": [{"measurement": "T/C", "setting": "dose: 25.0 mg/kg/injection, schedule: Q01DX009 (ip), vehicle: saline", "result": "94 % of control"}, {"measurement": "T/C", "setting": "dose: 31.3 mg/kg/injection, schedule: Q01DX Z (sc), vehicle: steriod suspending solution", "result": "107 % of control"}, {"measurement": "T/C", "setting": "dose: 50.0 mg/kg/injection, schedule: Q01DX001 (ip), vehicle: steriod suspending solution", "result": "98 % of control"}, {"measurement": "T/C", "setting": "dose: 50.0 mg/kg/injection, schedule: Q01DX009 (ip), vehicle: saline", "result": "100 % of control"}, {"measurement": "T/C", "setting": "dose: 62.5 mg/kg/injection, schedule: Q01DX Z (sc), vehicle: steriod suspending solution", "result": "110 % of control"}, {"measurement": "T/C", "setting": "dose: 100.0 mg/kg/injection, schedule: Q01DX001 (ip), vehicle: steriod suspending solution", "result": "96 % of control"}, {"measurement": "T/C", "setting": "dose: 100.0 mg/kg/injection, schedule: Q04DX003 (ip), vehicle: acetone", "result": "94 % of control"}, {"measurement": "T/C", "setting": "dose: 125.0 mg/kg/injection, schedule: Q01DX Z (sc), vehicle: steriod suspending solution", "result": "108 % of control"}, {"measurement": "T/C", "setting": "dose: 250.0 mg/kg/injection, schedule: Q01DX Z (sc), vehicle: steriod suspending solution", "result": "108 % of control"}]}, {"smiles": "Cc1nc(N)sc1S(=O)(=O)F", "values": [{"measurement": "T/C", "setting": "[1]", "result": "96 % of control"}, {"measurement": "T/C", "setting": "dose: 100.0 mg/kg/injection, schedule: Q04DX003 (ip), vehicle: saline with Tween-80", "result": "89 % of control"}, {"measurement": "T/C", "setting": "[2]", "result": "97 % of control"}, {"measurement": "T/C", "setting": "dose: 200.0 mg/kg/injection, schedule: Q04DX003 (ip), vehicle: saline with Tween-80", "result": "97 % of control"}, {"measurement": "T/C", "setting": "[3]", "result": "102 % of control"}, {"measurement": "T/C", "setting": "dose: 400.0 mg/kg/injection, schedule: Q04DX003 (ip), vehicle: saline with Tween-80", "result": "97 % of control"}]}]}
